Non-standard residues stand in square brackets, D forms with d. Residues, ends and D or L forms follow the SMILES beside them. No end group written: not given here. pGlu = O=C1CC[C@@H](C(=O)O)N1

Results on four molecules are retold here after article doi:10.1101/2024.10.14.618151v1 (bioRxiv, 2024).

The assay concerns PBL migration across TNF-α/IFN-γ-stimulated endothelial cells (HDBEC). The following applies: for IC50: 24 h.

SVTEQGAELSNEER [PEPITEM] displayed an IC50 of 0.045 nM. In turn, `C[C@H](NC(=O)CNC(=O)[C@@H]1CCC(=O)N1)C(N)=O` [[PyroGlu]-GA-NH2] ([pGlu]-Gly-Ala-NH2) registered a concentration for half-maximal inhibition (IC50) of 0.0032 nM. Consider SVTEQGA, for which the “effect on lymphocyte migration in vitro” value is given as “full activity”. The molecule `CC(C)[C@@H](NC(=O)[C@H](N)[C@H](C)O)C(=O)N[C@H](CO)C(N)=O` [tvs-NH2] (H-[dT]-[dV]-[dS]-NH2) came in with an IC50 of 0.024 nM.
